Columns and labels:
Format in all cases: in vivo, C57BL/6J mice
[1] = tested on: Fatty acid β-oxidation; assay: Fatty acid β-oxidation activity in adipose tissue; conditions: FIG. 5A, epididymal white adipose tissue, HFD+5% w/w in diet, 16 weeks
Experimental: (§1) First, 4-week-old male C57BL/6J mice (60 total) were purchased from Jackson Laboratory. The animals were acclimated to the vivarium in a thermo-hygrostat (20-23° C., 45-65%) under a 12 h light/dark cycle and fed a pelletized commercial non-purified diet for 1 week after arrival. The mice were then randomly divided into 6 groups (n=10) and fed the respective experimental diets for 16 weeks: normal diet group (ND, American Institute of Nutrition (AIN)-76 semi-synthetic diet), high-fat diet group (HFD, 20% fat+1% cholesterol based on AIN-76 diet), PSI group (HFD+5% D-psicose, w/w, Sigma Chemical Company), ERY group (HFD+5% erythritol, w/w, Sigma Chemical Company), GLU group (HFD+5% D-glucose, w/w, Sigma Chemical Company), and FRU group (HFD+5% D-fructose, w/w, Sigma Chemical Company). All high-fat diet-fed groups were allowed to ingest the same calories by pair feeding based on the PSI group. The mice had ad libitum access to distilled water during the experimental period. Their feed intakes and body weights were measured daily and biweekly, respectively. The organ weights and the adipose tissue weights of the mice were measured after sacrificing the animals. Samples were prepared and analyzed according to the method developed by Hulcher and Oleson. Specifically, the activity of fatty acid synthase (FAS) as a lipid regulating enzyme of epididymal white adipose tissue was measured by spectrophotometric assay according to the method described by Nepokroeff et al. Each sample was mixed with 100 μl of cytoplasmic fraction and the mixture was allowed to react at 30° C. for 2 min. A reduction in absorbance at 340 nm was measured. FAS activity units were expressed as nanomoles (nmol) of NADPH oxidized for 1 min per mg of cytoplasmic fraction. Fatty acid β-oxidation activity was measured by monitoring the reduction of NAD^+ to NADH in the presence of palmitoyl-CoA, as described by Lazarow. β-oxidation activity units were expressed as nanomoles (nmol) of NADH produced for 1 min per mg of mitochondrial protein.

[2] = tested on: high-fat diet-induced obese mice; assay: Hepatic lipid profiles; conditions: FIG. 4A, HFD+5% w/w in diet, 16 weeks
Experimental: First, 4-week-old male C57BL/6J mice (60 total) were purchased from Jackson Laboratory. The animals were acclimated to the vivarium in a thermo-hygrostat (20-23° C., 45-65%) under a 12 h light/dark cycle and fed a pelletized commercial non-purified diet for 1 week after arrival. The mice were then randomly divided into 6 groups (n=10) and fed the respective experimental diets for 16 weeks: normal diet group (ND, American Institute of Nutrition (AIN)-76 semi-synthetic diet), high-fat diet group (HFD, 20% fat+1% cholesterol based on AIN-76 diet), PSI group (HFD+5% D-psicose, w/w, Sigma Chemical Company), ERY group (HFD+5% erythritol, w/w, Sigma Chemical Company), GLU group (HFD+5% D-glucose, w/w, Sigma Chemical Company), and FRU group (HFD+5% D-fructose, w/w, Sigma Chemical Company). All high-fat diet-fed groups were allowed to ingest the same calories by pair feeding based on the PSI group. The mice had ad libitum access to distilled water during the experimental period. Their feed intakes and body weights were measured daily and biweekly, respectively. The organ weights and the adipose tissue weights of the mice were measured after sacrificing the animals.
Hepatic lipids were extracted from mice in the normal diet group (ND) and high-fat diet groups (HFD, ERY, GLU, FRU, and PSI) and dried. Then, each of the dried hepatic lipid extracts was dissolved in 1 ml of ethanol. 200 μl of the lipid solution was emulsified in a solution of Triton X-100 and sodium cholate in distilled water. Hepatic fatty acid, triglyceride, and cholesterol levels were analyzed using the same enzymatic kits as those used in Example 2.

[3] = tested on: fatty acid synthase (FAS); assay: FAS activity in epididymal white adipose tissue; conditions: FIG. 5A, HFD+5% w/w in diet, 16 weeks
Experimental: as §1

[4] = tested on: ABCG8 (ATP-binding cassette sub-family G member8, 67470); assay: Small intestine mRNA expression, real-time quantitative PCR: ABCG8; conditions: high-fat diet-fed obese mice
Experimental: (§2) First, 4-week-old male C57BL/6J mice (60 total) were purchased from Jackson Laboratory. The animals were acclimated to the vivarium in a thermo-hygrostat (20-23° C., 45-65%) under a 12 h light/dark cycle and fed a pelletized commercial non-purified diet for 1 week after arrival. […] Their feed intakes and body weights were measured daily and biweekly, respectively. The organ weights and the adipose tissue weights of the mice were measured after sacrificing the animals.
(§3) Samples were prepared and analyzed as previously described. Specifically, total RNA was synthesized into cDNA using a QuantiTect Reverse Transcription kit (QIAGEN Gmb1h, Hilden, Germany). RNA expression was quantified with real-time quantitative PCR using a QuantiTect SYBR Green PCR kit (QIAGEN Gmb1h, Hilden, Germany). […] Fluorescence signals were monitored every cycle and the resulting threshold cycles (Ct) were analyzed. mRNA expression in each experimental group was quantified using a CFX96 Real time system (Bio-rad, USA).

[5] = tested on: ABCG5 (ATP-binding cassette sub-family G member5, 27409); assay: Small intestine mRNA expression, real-time quantitative PCR: ABCG5; conditions: high-fat diet-fed obese mice
Experimental: as §2, §3

Row | SMILES | fatty acid β-oxidation activity in adipose tissue [1] | hepatic cholesterol level [2] | hepatic fatty acid level [2] | hepatic triglyceride level [2] | FAS activity in adipose tissue [3] | mRNA expression of ABCG8 (gene involved in lipid excretion) [4] | mRNA expression of ABCGS (gene involved in lipid excretion) [5]
1 | O=C(CO)[C@@H](O)[C@H](O)[C@H](O)CO [FRU, D-fructose] | decreased significantly compared to those in the ND group | significantly higher than those in the ND group | significantly higher than those in the ND group | significantly higher than those in the ND group | increased significantly compared to those in the ND group |  | 
2 | O=C(CO)[C@H](O)[C@H](O)[C@H](O)CO [PSI, D-psicose] | increased significantly compared to those in other high-fat diet groups | decreased significantly compared to those in other high-fat diet groups | decreased significantly compared to those in other high-fat diet groups | decreased significantly compared to those in other high-fat diet groups | decreased significantly compared to those in other high-fat diet groups | reduces mRNA expression | reduces mRNA expression
3 | O=C[C@H](O)[C@@H](O)[C@H](O)[C@H](O)CO [GLU, D-glucose] | decreased significantly compared to those in the ND group | significantly higher than those in the ND group | significantly higher than those in the ND group | significantly higher than those in the ND group | increased significantly compared to those in the ND group |  | 
4 | OC[C@@H](O)[C@@H](O)CO [ERY, erythritol] | decreased significantly compared to those in the ND group | significantly higher than those in the ND group | significantly higher than those in the ND group | significantly higher than those in the ND group | increased significantly compared to those in the ND group |  | 
